Experimental data taken from EP4790066A1, “GLP-1R/GIPR/GCGR TRIPLE AGONIST ANALOGUE AND USE THEREOF” (Shenzhen Bay Laboratory, priority 2023, dated 2025).
*1 amine or outer side, *2 acyl side, *3 side chain or, on linkers, in order; H or OH if unused. Where a SMILES comes first, the peptide text is derived from it. Bridges are numbered along the chain shown (N, C = ends). [ ]: non-standard residue; d: D form. X1 = O=C(O)CCCCCCCCCCCCCCCCCCC(=O)N[C@@H](CCCCNC(=O)COCCOCCNC(=O)COCCOCCNC(=O)CCC(=O)N(CCNC(=O)C[*:1])CCNC(=O)C[*:2])C(=O)O; Phe(2-F) = N[C@@H](Cc1ccccc1F)C(=O)O; Iva = CC[C@](C)(N)C(=O)O; Aib = CC(C)(N)C(=O)O

Columns and labels:
in vivo [1] = experiment: in vivo; set-up: species or system male SD rats; conditions: rat
Protocol: The pharmacokinetic behavior of target peptide derivatives (or polypeptide derivatives) prepared in Example 1 and Example 2, i.e., TG1-TG94 in rodents was tested. The specific steps are as follows:
The target peptide derivatives (TG1-TG94) to be tested were administered to male SD rats via subcutaneous injection (SC, 3 mg/kg; drug vehicle: PBS, concentration: 1.5 mg/mL; administration volume: 2 mL) and intravenous injection (IV, 1 mg/kg; drug vehicle: PBS, concentration: 0.5 mg/mL; administration volume: 2 mL) as a single dose, respectively. Whole blood samples were collected from the jugular vein or other appropriate vein at the following time points after administration: for SC, 15 min, 30 min, 1 h, 2 h, 4 h, 6 h, 8 h, 24 h, 48 h, 72 h, 96 h, 120 h, and 168 h; for IV, 5 min, 15 min, 30 min, 1 h, 2 h, 4 h, 8 h, 24 h, 48 h, 72 h, 96 h, 120 h, and 168 h. 0.2 mL of blood was collected and transferred into a labeled EDTA-K2 anticoagulant tube. The tube was gently inverted to ensure thorough mixing of the anticoagulant (EDTA-K2) with the blood and immediately placed on wet ice. Plasma separation was performed as soon as possible by centrifugation under the following conditions: 4°C, 6800xg, for 6 min. The plasma samples were stored in a refrigerator at no higher than -20°C and used for analysis when needed.
Under the condition of yellow light in an ice-water bath, except for blank samples, 300 µL of precipitant containing an internal standard was added to a 96-well plate containing 20 µL of standard curve sample, quality control sample, or unknown sample; 300 µL of acetonitrile was added to the blank sample. The mixture was vortexed, mixed well, and then centrifuged. 150 µL of the supernatant after centrifugation was transferred to a new 96-well plate, and 150 µL of ultrapure water was added and mixed well. The above samples were subjected to quantitative analysis using LC-MS analysis with XB-C18 (2.1 * 100 mm, 3 µm) chromatography for gradient elution. The mobile phases used were: mobile phase A = 0.1% formic acid-water; mobile phase B = acetonitrile. Phoenix WinNonlin software was used to calculate the pharmacokinetic parameters. […] Table 5A: Pharmacokinetic parameters of target peptide derivatives

in vivo [2] = experiment: in vivo; set-up: species or system adult male cynomolgus monkeys; conditions: male, cynomolgus monkey, 0.2 mg/kg
Protocol: The pharmacokinetic behavior of TG52 in non-rodents was tested. The specific steps are as follows:
The target peptide derivative TG52 to be tested was administered to adult male cynomolgus monkeys via subcutaneous and intravenous injections (0.2 mg/kg, with PBS as the drug vehicle) as a single dose, respectively. Whole blood samples were collected from the jugular vein or other appropriate vein at the following time points after administration: for SC, 0 min, 30 min, 1 h, 3 h, 7 h, 24 h, 48 h, 72 h, 120 h, 168 h, 216 h, and 264 h; for IV, 0 min, 5 min, 30 min, 1 h, 3 h, 7 h, 24 h, 48 h, 72 h, 120 h, 168 h, 216 h, and 264 h. 0.2 mL of blood was collected and transferred into a labeled EDTA-K2 anticoagulant tube. The tube was gently inverted to ensure thorough mixing of the anticoagulant (EDTA-K2) with the blood and immediately placed on wet ice. Plasma separation was performed as soon as possible by centrifugation under the following conditions: 4°C, 6800xg, for 6 min. The plasma samples were stored in a refrigerator at no higher than -20°C and used for analysis when needed. Analysis of the drug content in the blood samples was performed using the analytical method described above. Table 5C: Pharmacokinetic parameters of TG52 in cynomolgus monkeys

SMILES: CC[C@H](C)[C@@H]1NC(=O)[C@H](Cc2ccccc2)NC(=O)[C@@H](NC(=O)C(C)(C)NC(=O)[C@H](CCC(N)=O)NC(=O)[C@H](C)NC(=O)[C@H](CCCCNC(C)=O)NC(=O)[C@H](CCCCN)NC(=O)[C@H](CC(=O)O)NC(=O)[C@H](CC(C)C)NC(=O)[C@](C)(CC)NC(=O)[C@@H](NC(=O)[C@H](CO)NC(=O)[C@H](Cc2ccc(O)cc2)NC(=O)[C@H](CC(=O)O)NC(=O)[C@H](CO)NC(=O)[C@@H](NC(=O)[C@H](Cc2ccccc2F)NC(=O)[C@@H](NC(=O)CNC(=O)[C@H](CCC(N)=O)NC(=O)C(C)(C)NC(=O)[C@@H](N)Cc2ccc(O)cc2)[C@@H](C)O)[C@@H](C)O)[C@@H](C)CC)CSCC(=O)NCCN(C(=O)CCC(=O)NCCOCCOCC(=O)NCCOCCOCC(=O)NCCCC[C@H](NC(=O)CCCCCCCCCCCCCCCCCCC(=O)O)C(=O)O)CCNC(=O)CSC[C@@H](C(=O)NCC(=O)NCC(=O)N2CCC[C@H]2C(=O)N[C@@H](CO)C(=O)N[C@@H](CO)C(=O)NCC(=O)N[C@@H](C)C(=O)N2CCC[C@H]2C(=O)N2CCC[C@H]2C(=O)N2CCC[C@H]2C(=O)N[C@@H](CO)C(N)=O)NC(=O)[C@H](CC(C)C)NC(=O)[C@H](CC(C)C)NC(=O)[C@H](Cc2ccc(O)cc2)NC(=O)[C@H](CCC(=O)O)NC1=O [TG52] (H-Y[Aib]QGT[Phe(2-F)]TSDYSI[Iva]LDKK(Ac)AQ[Aib]CFIEYLLCGGPSSGAPPPS-NH2; linker 21-28 via X1)
- AUC(0-inf) (in vivo [1]; male, SD, iv, 1 mg/kg): 289 µg·h/mL
- AUC(0-t) (in vivo [1]; male, SD, iv, 1 mg/kg): 265 µg·h/mL
- MRT (in vivo [1]; male, SD, iv, 1 mg/kg): 26.5 h
- Vd (in vivo [1]; male, SD, iv, 1 mg/kg): 0.092 L/kg
- clearance (in vivo [1]; male, SD, iv, 1 mg/kg): 3.48 mL/h/kg
- half-life (in vivo [1]; male, SD, iv, 1 mg/kg): 21.5 h
- bioavailability (in vivo [1]; male, SD, sc): 50.9%
- AUC(0-inf) (in vivo [1]; male, SD, sc, 3 mg/kg): 570 µg·h/mL
- AUC(0-t) (in vivo [1]; male, SD, sc, 3 mg/kg): 410 µg·h/mL
- CL/F (in vivo [1]; male, SD, sc, 3 mg/kg): 5.26 mL/h/kg
- Cmax (in vivo [1]; male, SD, sc, 3 mg/kg): 8210 ng/mL
- MRT (in vivo [1]; male, SD, sc, 3 mg/kg): 42.8 h
- Tmax (in vivo [1]; male, SD, sc, 3 mg/kg): 24 h
- half-life (in vivo [1]; male, SD, sc, 3 mg/kg): 26.4 h
- AUC0-t /AUC0-inf (in vivo [1]; iv, 1 mg/kg): 0.918
- Kel (in vivo [1]; iv, 1 mg/kg): 0.0323 h⁻¹
- AUC0-t /AUC0-inf (in vivo [1]; sc, 3 mg/kg): 0.834
- Vz/F (in vivo [1]; sc, 3 mg/kg): 0.200 L/kg
- AUC(0-inf) (in vivo [2]; iv): 302 µg·h/mL
- AUC(0-t) (in vivo [2]; iv): 278 µg·h/mL
- Vd (in vivo [2]; iv): 0.0626 L/kg
- clearance (in vivo [2]; iv): 0.666 mL/h/kg
- half-life (in vivo [2]; iv): 88.3 h
- AUC(0-t) (in vivo [2]; sc): 199 µg·h/mL
- Cmax (in vivo [2]; sc): 1760 ng/mL
- Tmax (in vivo [2]; sc): 18.3 h
- bioavailability (in vivo [2]; sc): 75.7%
- half-life (in vivo [2]; sc): 97.2 h
